Data taken from patent US20140187548A1, “6 SUBSTITUTED IMIDAZOPYRAZINES FOR USE AS MPS-1 AND TKK INHIBITORS IN THE TREATMENT OF HYPERPROLIFERATIVE DISORDERS” (BAYER INTELLECTUAL PROPERTY GMBH, priority 2010, published 2014).

Target: T1, human kinase Mps-1 (Homo sapiens, UniProt P33981)
T1 construct: N-terminally GST-tagged human full length recombinant Mps-1 kinase; GST (N); purchased Invitrogen, Karslruhe, Germany PV4071
T1 sequence (P33981 1-857): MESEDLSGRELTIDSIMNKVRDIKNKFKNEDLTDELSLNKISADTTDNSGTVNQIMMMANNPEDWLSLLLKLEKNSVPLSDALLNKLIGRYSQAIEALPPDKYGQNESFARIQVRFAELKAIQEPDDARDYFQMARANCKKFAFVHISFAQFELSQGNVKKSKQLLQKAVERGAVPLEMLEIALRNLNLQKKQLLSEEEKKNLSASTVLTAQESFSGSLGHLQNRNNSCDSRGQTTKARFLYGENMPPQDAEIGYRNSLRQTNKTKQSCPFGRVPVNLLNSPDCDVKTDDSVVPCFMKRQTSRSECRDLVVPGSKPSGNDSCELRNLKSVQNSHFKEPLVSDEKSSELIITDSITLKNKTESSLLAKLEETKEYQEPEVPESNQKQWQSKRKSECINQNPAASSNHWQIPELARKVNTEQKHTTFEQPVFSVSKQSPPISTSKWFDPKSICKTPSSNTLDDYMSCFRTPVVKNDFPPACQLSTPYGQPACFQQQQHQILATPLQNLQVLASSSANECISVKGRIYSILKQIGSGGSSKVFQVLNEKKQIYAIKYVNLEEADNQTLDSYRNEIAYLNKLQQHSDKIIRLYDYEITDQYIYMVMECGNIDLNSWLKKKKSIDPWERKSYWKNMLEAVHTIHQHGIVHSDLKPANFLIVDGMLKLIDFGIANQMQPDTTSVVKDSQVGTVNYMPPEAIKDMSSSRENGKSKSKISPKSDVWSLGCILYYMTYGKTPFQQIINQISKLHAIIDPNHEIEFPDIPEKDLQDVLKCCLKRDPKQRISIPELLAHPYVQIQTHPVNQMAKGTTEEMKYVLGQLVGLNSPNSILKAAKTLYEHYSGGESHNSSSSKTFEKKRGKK
Experiment: Mps-1 kinase assay (TR-FRET)
Type: biochemical
Conditions: N-terminally GST-tagged human full length recombinant Mps-1; 10 μM ATP; 1 μM peptide substrate; 15 min pre-incubation; 60 min at 22° C.
Method in brief: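 TR-FRET read-out: after 1 h binding at 22° C, Eu-labelled anti-phospho-Ser/Thr antibody transfers to SA-XLent on the phosphorylated biotinylated peptide. The enzyme is GST-tagged full-length human Mps-1, typically about 1 nM final, in the linear range.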

Row | SMILES | IC50
1 | COc1cc(OC)cc(-c2cn3c(-c4ccc(C(=O)NC5CC5)cc4)cnc3c(NCC(C)C)n2)c1 [Example 1-21, N-cyclopropyl-4-{6-(3,5-dimethoxyphenyl)-8-[(2-methylpropyl)amino]imidazo[1,2-a]pyrazin-3-yl}benzamide] | 19 nM
2 | CSc1ccc(-c2cn3c(-c4ccc(C(=O)NC5CC5)cc4)cnc3c(NCC(C)C)n2)cc1 [Example 1-18, N-cyclopropyl-4-{8-[(2-methylpropyl)amino]-6-[4-(methylsulfanyl)phenyl]imidazo[1,2-a]pyrazin-3-yl}benzamide] | 8.5 nM
3 | CC(C)CNc1nc(-c2ccc(F)c(C(=O)NC(C)C)c2)cn2c(-c3ccc(C(=O)NC4CC4)cc3)cnc12 [Example 1-85, 5-{3-[4-(cyclopropyl-carbamoyl)phenyl]-8-[(2-methylpropyl)amino]imidazo[1,2-a]pyrazin-6-yl}-2-fluoro-N-(propan-2-yl)benzamide] | 2.6 nM
4 | CC(C)CNc1nc(-c2cccc(C(=O)NCc3ccccc3)c2)cn2c(-c3ccc(C(=O)NC4CC4)cc3)cnc12 [Example 1-55, N-benzyl-3-{3-[4-(cyclo-propylcarbamoyl)phenyl]-8-[(2-methylpropyl)amino]imidazo[1,2-a]pyrazin-6-yl}benzamide] | 4.6 nM
5 | COc1ccc2cc(-c3cn4c(-c5ccc(C(=O)NC6CC6)cc5)cnc4c(NCC(C)C)n3)ccc2c1 [Example 1-79, N-cyclopropyl-4-{6-(6-methoxynaphthalen-2-yl)-8-[(2-methylpropyl)amino]imidazo[1,2-a]pyrazin-3-yl}benzamide] | 32.7 nM
6 | CC(C)CNc1nc(-c2ccccc2C(F)(F)F)cn2c(-c3ccc(C(=O)NC4CC4)cc3)cnc12 [Example 1-43, N-cyclopropyl-4-{8-[(2-methylpropyl)amino]-6-[2-(trifluoromethyl)phenyl]imidazo[1,2-a]pyrazin-3-yl}benzamide] | 16.3 nM
7 | CC(C)CNc1nc(-c2cccc(C(F)(F)F)c2)cn2c(-c3ccc(C(=O)NC4CC4)cc3)cnc12 [Example 1-35, N-cyclopropyl-4-{8-[(2-methylpropyl)amino]-6-[3-(trifluoromethyl)phenyl]imidazo[1,2-a]pyrazin-3-yl}benzamide] | 49.3 nM
8 | CC(C)CNc1nc(-c2cccc(C(=O)N(C)C)c2)cn2c(-c3ccc(C(=O)NC4CC4)cc3)cnc12 [Example 1-27, 3-{3-[4-(cyclopropyl-carbamoyl)phenyl]-8-[(2-methylpropyl)amino]imidazo[1,2-a]pyrazin-6-yl}-N,N-dimethyl-benzamide] | 8.1 nM
9 | CC(C)CNc1nc(-c2ccc(OC(C)C)cc2)cn2c(-c3ccc(C(=O)NC4CC4)cc3)cnc12 [Example 1-58, N-cyclopropyl-4-{8-[(2-methylpropyl)amino]-6-[4-(propan-2-yloxy)phenyl]imidazo[1,2-a]pyrazin-3-yl}benzamide] | 27 nM
10 | COc1c(C)cc(-c2cn3c(-c4ccc(C(=O)NC5CC5)cc4)cnc3c(NCC(C)C)n2)cc1C [Example 1-68, N-cyclopropyl-4-{6-(4-methoxy-3,5-dimethylphenyl)-8-[(2-methyl-propyl)amino]imidazo [1,2-a]pyrazin-3-yl} benzamide] | 19.7 nM
11 | COc1cccc(-c2cn3c(-c4ccc(C(=O)NC5CC5)cc4)cnc3c(NCC(C)C)n2)c1 [Example 1-38, N-cyclopropyl-4-{6-(3-methoxyphenyl)-8-[(2-methylpropyl)amino]imidazo[1,2-a]pyrazin-3-yl}benzamide] | 4.8 nM
12 | CNC(=O)c1cccc(-c2cn3c(-c4ccc(C(=O)NC5CC5)cc4)cnc3c(NCC(C)C)n2)c1 [Example 1-33, 3-{3-[4-(cyclopropyl-carbamoyl)phenyl]-8-[(2-methylpropyl)amino]imidazo[1,2-a]pyrazin-6-yl}-N-methylbenzamide] | 1.4 nM
13 | CC(C)CNc1nc(-c2cccc(O)c2)cn2c(-c3ccc(C(=O)NC4CC4)cc3)cnc12 [Example 1-66, N-cyclopropyl-4-{6-(3-hydroxyphenyl)-8-[(2-methylpropyl)amino]imidazo[1,2-a]pyrazin-3-yl}benzamide] | 2.2 nM
14 | CNC(=O)c1ccc(-c2cn3c(-c4ccc(C(=O)NC5CC5)cc4)cnc3c(NCC(C)C)n2)cc1Cl [Example 1-82, 2-chloro-4-{3-[4-(cyclopropylcarbamoyl)phenyl]-8-[(2-methylpropyl)amino]imidazo[1,2-a]pyrazin-6-yl}-N-methyl benzamide] | 1.6 nM
15 | COc1ccccc1-c1cn2c(-c3ccc(C(=O)NC4CC4)cc3)cnc2c(NCC(C)C)n1 [Example 1-41, N-cyclopropyl-4-{6-(2-methoxyphenyl)-8-[(2-methylpropyl)amino]imidazo[1,2-a]pyrazin-3-yl}benzamide] | 7.4 nM

The remaining lines, values ahead:

Row | IC50 | SMILES
16 | 5.3 nM | CC(C)CNc1nc(-c2ccc(F)cc2)cn2c(-c3ccc(C(=O)NC4CC4)c(F)c3)cnc12 [Example 1-109, N-cyclopropyl-2-fluoro-4-{6-(4-fluorophenyl)-8-[(2-methylpropyl)amino]imidazo[1,2-a]pyrazin-3-yl}benzamide]
17 | 3.5 nM | O=C(NC1CC1)c1ccc(-c2cnc3c(NCCC(F)(F)F)nc(-c4ccccc4CO)cn23)cc1F [Example 1-114, N-cyclopropyl-2-fluoro-4-{6-[2-(hydroxymethyl)phenyl]-8-[(3,3,3-tri-fluoropropyl)amino]imidazo[1,2-a]pyrazin-3-yl}benzamide]
18 | 5.8 nM | O=C(NC1CC1)c1ccc(-c2cnc3c(NCc4ccc5c(c4)OCO5)nc(-c4ccccc4)cn23)cc1 [Example 2-32, 4-{8-[(1,3-benzodioxol-5-ylmethyl)amino]-6-phenylimidazo[1,2-a]pyrazin-3-yl}-N-cyclopropyl-benzamide]
19 | 13.8 nM | O=C(NC1CC1)c1ccc(-c2cnc3c(NCc4cccc(Cl)c4)nc(-c4ccccc4)cn23)cc1 [Example 2-6, 4-{8-[(3-chlorobenzyl)amino]-6-phenylimidazo [1,2-a]pyrazin-3-yl}-N-cyclopropylbenzamide]
20 | 11.9 nM | Cc1cc(-c2cnc3c(NCCC(F)(F)F)nc(-c4cccc(CO)c4)cn23)ccc1C(=O)NC1CC1 [Example 1-122, N-cyclopropyl-4-{6-[3-(hydroxymethyl)phenyl]-8-[(3,3,3-trifluoropropyl)amino]imidazo[1,2-a]pyrazin-3-yl}-2-methyl-benzamide]
21 | 6.4 nM | O=C(NC1CC1)c1ccc(-c2cnc3c(NCc4sccc4Cl)nc(-c4ccccc4)cn23)cc1 [Example 2-59, 4-(8-{[(3-chlorothiophen-2-yl)methyl]amino}-6-phenylimidazo [1,2-a]pyrazin-3-yl)-N-cyclopropylbenzamide]
22 | 1.7 nM | COCCNc1nc(-c2ccccc2)cn2c(-c3ccc(C(=O)NC4CC4)cc3)cnc12 [Example 2-12, N-cyclopropyl-4-{8-[(2-methoxyethyl)amino]-6-phenylimidazo[1,2-a]pyrazin-3-yl}benzamide]
23 | 28.7 nM | O=C(NC1CC1)c1ccc(-c2cnc3c(NCC4CCCO4)nc(-c4ccc(F)cc4)cn23)cc1Cl (stereo not shown) [Example 1-103, 2-chloro-N-cyclopropyl-4-{6-(4-fluorophenyl)-8-[(tetrahydrofuran-2-ylmethyl)amino]imidazo [1,2-a]pyrazin-3-yl} benzamide]
24 | 27.4 nM | O=C(NC1CC1)c1ccc(-c2cnc3c(NCCN4CCCC4)nc(-c4ccccc4)cn23)cc1 [Example 2-25, N-cyclopropyl-4-(6-phenyl-8-{[2-(pyrrolidin-1-yl)ethyl]amino}imidazo[1,2-a]pyrazin-3-yl)benzamide]
25 | 11.2 nM | CN(C)c1ccc(-c2cn3c(-c4ccc(C(=O)NC5CC5)c(F)c4)cnc3c(NCCC(F)(F)F)n2)cc1 [Example 1-113, N-cyclopropyl-4-{6-[4-(dimethylamino)phenyl]-8-[(3,3,3-trifluoropropyl)amino]imidazo[1,2-a]pyrazin-3-yl}-2-fluoro-benzamide]
26 | 1.1 nM | O=C(NC1CC1)c1ccc(-c2cnc3c(NCCCCO)nc(-c4ccccc4)cn23)cc1 [Example 2-78, N-cyclopropyl-4-{8-[(4-hydroxybutyl)amino]-6-phenylimidazo[1,2-a]pyrazin-3-yl}benzamide]
27 | 2.3 nM | CCOC(C)CNc1nc(-c2ccccc2)cn2c(-c3ccc(C(=O)NC4CC4)cc3)cnc12 (stereo not shown) [Example 2-57, N-cyclopropyl-4-{8-[(2-ethoxypropyl)amino]-6-phenylimidazo[1,2-a]pyrazin-3-yl}benzamide]
28 | 119 nM | Cc1cc(-c2cnc3c(NCC4CCN(C)C4)nc(-c4ccc(F)cc4)cn23)ccc1C(=O)NC1CC1 (stereo not shown) [Example 10-8, N-cyclopropyl-4-[6-(4-fluorophenyl)-8-{[(1-methylpyrrolidin-3-yl)methyl]amino}imidazo [1,2-a]pyrazin-3-yl]-2-methylbenzamide]
